≈ marks a conversion by molar mass, not a printed value.
Columns and labels:
HEK293 = experiment: cells; type: functional; details: Homo sapiens, ATCC CRL1573, HEK293; ASSAY_TEST Inhibition of Cell Viability; detection method Resazurin; Fluorescence (ex560/em590); MEDIA DMEM with 10% FBS; plate type 384well; TC; CORNING #3712; time 18 hr
Staphylococcus aureus = experiment: microbe, parasite or virus in culture; details: ATCC 43300, 18 h, ASSAY_TEST Inhibition of Bacterial Growth, detection method Absorption (OD600), MEDIA CAMHB, plate type 384well, NBS, CORNING #3640
Description: Antibacterial activity against Staphylococcus aureus MRSA ATCC 43300 (CO-ADD:GP_020); MIC in CAMBH media, using NBS plates, by OD(600)

Escherichia coli = experiment: microbe, parasite or virus in culture; details: ATCC 25922, 18 h, ASSAY_TEST Inhibition of Bacterial Growth, detection method Absorption (OD600), MEDIA CAMHB, plate type 384well, NBS, CORNING #3640
Description: Antibacterial activity against Escherichia coli ATCC 25922 (CO-ADD:GN_001); MIC in CAMBH media using NBS plates, by OD(600)

Klebsiella pneumoniae = experiment: microbe, parasite or virus in culture; details: ATCC 700603, 18 h, ASSAY_TEST Inhibition of Bacterial Growth, detection method Absorption (OD600), MEDIA CAMHB, plate type 384well, NBS, CORNING #3640
Description: Antibacterial activity against Klebsiella pneumoniae MDR ATCC 70063 (CO-ADD:GN_003); MIC in CAMBH media using NBS plates, by OD(600)

Pseudomonas aeruginosa = experiment: microbe, parasite or virus in culture; details: ATCC 27853, 18 h, ASSAY_TEST Inhibition of Bacterial Growth, detection method Absorption (OD600), MEDIA CAMHB, plate type 384well, NBS, CORNING #3640
Description: Antibacterial activity against Pseudomonas aeruginosa ATCC 27853 (CO-ADD:GN_042); MIC in CAMBH media using NBS plates, by OD(600)

Acinetobacter baumannii = experiment: microbe, parasite or virus in culture; details: ATCC 19606, 18 h, ASSAY_TEST Inhibition of Bacterial Growth, detection method Absorption (OD600), MEDIA CAMHB, plate type 384well, NBS, CORNING #3640
Description: Antibacterial activity against Acinetobacter baumannii ATCC 19606 (CO-ADD:GN_034); MIC in CAMBH media using NBS plates, by OD600

Candida albicans = experiment: microbe, parasite or virus in culture; details: ATCC 90028, ASSAY_TEST Inhibition of Fungal Growth, detection method Absorption (OD530), plate type 384well, NBS, CORNING #3640
Description: Antifungal activity against Candida albicans ATCC 90028 (CO-ADD:FG_001); MIC in YNB media using NBS plates, by OD630

Description for Cryptococcus neoformans: Antifungal activity against Cryptococcus neoformans H99 ATCC 208821 (CO-ADD:FG_002); MIC in YNB media using NBS plates, by Resazurin OD(600-570)

| SMILES | CC50 (HEK293) [µg/mL] | MIC (Cryptococcus neoformans) [µg/mL] | MIC (Staphylococcus aureus) [µg/mL] | MIC (Escherichia coli) [µg/mL] | MIC (Klebsiella pneumoniae) [µg/mL] | MIC (Pseudomonas aeruginosa) [µg/mL] | MIC (Acinetobacter baumannii) [µg/mL] | MIC (Candida albicans) [µg/mL] |
| --- | --- | --- | --- | --- | --- | --- | --- | --- |
| CCOC(=O)C1=C(C)OC(N)=C(C#N)C1c1ccc(Cl)cc1 (configuration not stated) | > 32 | > 32 | > 32 | > 32 | > 32 | > 32 | > 32 | 32 (≈ 100 µM) |
| N#Cc1c(N)nc(Sc2ccccc2)c(C#N)c1-c1ccccc1 | > 32 | > 32 | > 32 | > 32 | > 32 | > 32 | > 32 | > 32 |
| CC#CCN(C)Cc1cc2cc(OCc3ccccc3)ccc2[nH]1.O=C(O)C(=O)O | > 32 | > 32 | > 32 | > 32 | > 32 | > 32 | > 32 | > 32 |
| Oc1ccc(CCl)c2cccnc12 | 5.81 (≈ 30 µM) | 16 (≈ 82.6 µM) | > 32 | > 32 | > 32 | 32 (≈ 165 µM) | > 32 | > 32 |
| N#Cc1c(NCCC2CCN(Cc3ccccc3)CC2)nc(NCCC2CCN(Cc3ccccc3)CC2)c(C#N)c1-c1ccccc1 | > 32 | > 32 | > 32 | > 32 | > 32 | > 32 | > 32 | > 32 |
| N#Cc1c(N)[n+]([O-])c2ccccc2[n+]1[O-] | > 32 | > 32 | > 32 | 16 (≈ 79.1 µM) | > 32 | > 32 | > 32 | > 32 |
| N#CC1=C(N)Oc2c(ccc3ccccc23)C1c1ccc([N+](=O)[O-])cc1 (configuration not stated) | 0.259 (≈ 0.754 µM) | > 32 | > 32 | > 32 | > 32 | > 32 | > 32 | > 32 |
| C#CCN(C)c1nc(NCCCC2CCN(Cc3ccccc3)CC2)c(C#N)c(-c2ccccc2)c1C#N.Cl | 8.06 | 32 | > 32 | > 32 | > 32 | > 32 | > 32 | > 32 |
| COc1ccc(OC)c2nc(Cl)c(C=O)cc12 | > 32 | > 32 | > 32 | > 32 | > 32 | > 32 | > 32 | > 32 |
| Cn1ccnc1C1c2c(nc3c(c2N)CCCCC3)Oc2ccc3ccccc3c21 (configuration not stated) | > 32 | > 32 | > 32 | > 32 | > 32 | > 32 | > 32 | > 32 |
| N#CC(C#N)=Cc1cccc([N+](=O)[O-])c1 | > 32 | > 32 | > 32 | > 32 | > 32 | 32 (≈ 161 µM) | > 32 | > 32 |
| COc1nc2n[nH]c(N)c2c(-c2ccccc2)c1C#N | 5.47 (≈ 20.6 µM) | > 32 | > 32 | > 32 | > 32 | > 32 | > 32 | > 32 |
| CCOC(=O)C(=Cc1ccccc1)C(C)=O | 13.5 (≈ 61.9 µM) | 8 (≈ 36.7 µM) | > 32 | > 32 | > 32 | > 32 | > 32 | 16 (≈ 73.3 µM) |
| CCOC(=O)c1cc2cc(OCCCC3CCN(Cc4ccccc4)CC3)ccc2[nH]1.Cl | 16.5 | > 32 | > 32 | > 32 | > 32 | > 32 | > 32 | > 32 |
| CCOC(=O)c1c(C)nc(NCCCCC2CCN(Cc3ccccc3)CC2)c(C#N)c1-c1ccccc1 | 18.8 (≈ 36.8 µM) | > 32 | > 32 | > 32 | > 32 | > 32 | > 32 | > 32 |
| C#CCNCc1cc2cc(OCc3ccccc3)ccc2[nH]1.Cl | 4.04 | > 32 | > 32 | > 32 | > 32 | > 32 | > 32 | > 32 |
| COc1ccc(CCl)c2cccnc12 | > 32 | > 32 | > 32 | > 32 | > 32 | > 32 | > 32 | 32 (≈ 154 µM) |
| Cl.Oc1ccc(CCl)c2cccnc12 | 2.26 | 1 | 4 | > 32 | > 32 | 32 | > 32 | 16 |
| CC1=C(C(=O)OC(C)(C)C)C(c2ccccc2)C(C#N)=C(N)O1 (configuration not stated) | > 32 | > 32 | > 32 | > 32 | > 32 | > 32 | > 32 | 32 (≈ 102 µM) |

Source: ChEMBL document CHEMBL4513135, “CO-ADD screening of IQOG CSIS (Spain) compounds”
